The results in this text go back to patent EP1191024A1, “Thiadiazines and their use as inhibitors of metalloproteinases” (Tschesche, Harald, priority 2000, dated 2002).

Structures can show the parent of a compound that is named as a salt. Where two headings read alike, the source gives them in different places.

The target of this experiment is T1, cdMMP-8 (Homo sapiens, UniProt P22894).
T1 construct: recombinant catalytic domain of human neutrophile Collagenase (cdMMP-8^Met80); made in house; host or cells: E. coli
T1 sequence (P22894 100-262 limits assumed): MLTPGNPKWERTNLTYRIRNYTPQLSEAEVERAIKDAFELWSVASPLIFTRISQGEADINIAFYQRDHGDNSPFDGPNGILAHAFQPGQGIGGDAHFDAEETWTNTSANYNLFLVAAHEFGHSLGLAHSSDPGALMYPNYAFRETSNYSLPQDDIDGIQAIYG
Briefly: MMP microfluorometric profiling assay (fluorogenic Mca-peptide substrate). It is filed as biochemical. The procedure:
The tested MMP enzymes were prepared more specifically in the laboratories of the applicants, with the exception of MMP-1. MMP-1 from human rheumatoid synovial fibroblasts was purchased from Calbiochem-Novabiochem Corporation, LaJolla. Preparation of the recombinant catalytic domain of human Gelatinase A (cdMMP-2): The catalytic domain of Pro-Gelatinase A was prepared using an E. coli expression system according to the method described by Kröger et al^[19]. The proenzyme was activated with 0.5 mM APMA at 37°C prior to use in the assay. […] Preparation of PMNL-Gelatinase (MMP-9): Latent PMNL-pro-Gelatinase was prepared from human plasma buffy coat as described by Tschesche et al^[21]. PMNL-pro-Gelatinase was activated prior to use by incubation with Trypsin at 37°C for 10 min. Inactivation of Trypsin was accomplished with TKI. […] The overexpressed protein was isolated as inclusion bodies and the renatured protein was purified by affinity chromatography with a hydroxamate inhibitor coupled column as described^[22]. Preparation of the recombinant catalytic domain of human Collagenase-3 (cdMMP-13): Human pro-cdMMP-13 was prepared using an E. coli expression system according to the method described^[23]. The isolated pro-cdMMP-13 was activated prior to use by incubation with 5 mM HgCl2 for 2 h at 37°C.
The enzymatic activity was measured using a modified version of a resonance energy transfer fluorogenic assay as described^[26]. […] The fluorescent MCA-group is quenched by resonance energy transfer to the 2,4-dinitrophenyl group. Matrix metalloproteinases cleave this substrate at the Gly-Leu bond. Cleavage results in the loss of energy transfer and a large increase in fluorescence of the MCA group. This substrate is commercially available from Bachem, Switzerland.
Enzyme inhibition assays were carried out in MRB which consisted of 50 mM HEPES/NaOH, pH 7.0, 10 mM CaCl2 and 0,02% (w/v) PEG 8000 at 25°C. MMP microfluorometric profiling assay was done in white U-bottomed 96-well plates (Microfluor 1 White, Dynex, USA) with a final substrate concentration of 6 µM MCA-peptide, approximately 0.3 to 5 nM MMP with variable inhibitor concentrations and 2% DMSO vehicle. From a 1.5 mM stock (100% DMSO) the inhibitors were serially diluted with MRB to 15, 10, 5, 3, 1, 0.6, 0.3, 0.1, 0.05, 0.01 and 0.005 µM final assay concentration. Column 1, rows A through H, contained only DMSO for the "enzyme-only" wells in the assay. […] Each measurement was done in triplicate to ensure statistically significant results. The experiment was further controlled for background fluorescence of the substrate, for fluorescence of fully cleaved substrate and for fluorescence quenching or augmentation from solutions containing the test compounds.
Datapoints from eight different MMPs generated on the SpectraFluor Plus were directly visualized on a master Excel spreadsheet. The response of inhibition was determinated for each inhibitor concentration by comparing the amount of hydrolysis (fluorescence units generated over 30 minutes of hydrolysis) of wells containing compound with the "enzyme-only" wells in column 1. With the program GraFit (Erithacus Software Limited) a 4 parameter logistic fit to the dose-response data was used to calculate IC50 values for each compound.

In the case of `CC(C)(C)c1ccc(S(=O)(=O)NCC(=O)NC2=NN=C(c3ccc(Cl)cc3Cl)CS2)cc1` [Example 18, 2-{[(4-tert-Butylphenyl)sulfonyl]amino}-N-[5-(2,4-dichlorophenyl)-6H-1,3,4-thiadiazin-2-yl]acetamide], the IC50 (in general, the midpoint of a concentration-inhibition curve) (read-out: cdMMP-8 IC50) worked out at 0.492 µM. Regarding `O=C(CC1NC(=O)NC1=O)NC1=NN=C(c2ccc(N3CCCC3)cc2)CS1` (stereo not drawn) [Example 26, 2-(2,5-Dioxo-4-imidazolidinyl)-N-{5-[4-(1-pyrrolidinyl)phenyl]-6H-1,3,4-thiadiazin-2-yl}acetamide], the IC50 (read-out: cdMMP-8 IC50) was found to be 1.17 µM.

Take `O=C(CC1NC(=O)NC1=O)NC1=NN=C(c2ccc(C3CCCCC3)cc2)CS1` (stereo not drawn) [Example 25, N-[5-(4-Cyclohexylphenyl)-6H-1,3,4-thiadiazin-2-yl]-2-(2,5-dioxo-4-imidazolidinyl)acetamide]: the percent inhibition (cdMMP-8, @ 15 (µM)) came out at 56%^a)@ 15. `O=C(CC1NC(=O)NC1=O)NC1=NN=C(c2ccc(Br)cc2)CS1` (stereo not drawn) [Example 24, N-[5-(4-Bromophenyl)-6H-1,3,4-thiadiazin-2-yl]-2-(2,5-dioxo-4-imidazolidinyl)-acetamide]: the IC50 (read-out: cdMMP-8 IC50) turned out to be 0.578 µM.

Consider `C[C@@H](NS(=O)(=O)c1ccccc1)C(=O)NC1=NN=C(c2ccc(C#N)cc2)CS1` [Example 1, (2R)-N-[5-(4-Cyanophenyl)-6H-1,3,4-thiadiazine-2-yl]-2-[(phenylsulfonyl)amino]-propanamide], for which the IC50 (read-out: cdMMP-8 IC50) is 0.468 µM. On the same count and under the same terms, with `C[C@H](NS(=O)(=O)c1ccccc1)C(=O)NC1=NN=C(c2ccc(Cl)s2)CS1` [Example 10, (2S)-N-[5-(5-Chloro-2-thienyl)-6H-1,3,4-thiadiazin-2-yl]-2-[(phenylsulfonyl)-amino]propanamide] the figure was 0.371 µM; with `COc1ccc(C2=NN=C(NC(=O)[C@H](C)NS(=O)(=O)c3ccccc3)SC2)cc1` [Example 12, (2S)-N-[5-(4-Methoxyphenyl)-6H-1,3,4-thiadiazin-2-yl]-2-[(phenylsulfonyl)-amino]propanamide], 0.354 µM. The molecule `C[C@H](NS(=O)(=O)c1ccccc1)C(=O)NC1=NN=C(c2ccc(C(F)(F)F)cc2)CS1` [Example 4, (2S)-2-[(Phenylsulfonyl)amino]-N-{5-[4-(trifluormethyl)phenyl]-6H-1,3,4-thiadiazin-2-yl}propanamide] showed an IC50 of 0.515 µM.

Turning to `C[C@H](NS(=O)(=O)c1ccccc1)C(=O)NC1=NN=C(c2ccc([N+](=O)[O-])cc2)CS1` [Example 9, (2S)-N-[5-(4-Nitrophenyl)-6H-1,3,4-thiadiazin-2-yl]-2-[(phenylsulfonyl)amino]-propanamide], the half-inhibitory concentration (IC50) (read-out: cdMMP-8 IC50) stood at 0.337 µM.

Consider `CC(C)[C@H](NS(=O)(=O)c1ccccc1)C(=O)NC1=NN=C(c2ccc(Cl)cc2)CS1` [Example 22, (2S)-N-[5-(4-Chlorophenyl)-6H-1,3,4-thiadiazin-2-yl]-3-methyl-2-[(phenylsulfonyl)amino]butanamide], for which the IC50 (read-out: cdMMP-8 IC50) was 1.58 µM. Same read-out and setting: with `COc1ccc(S(=O)(=O)NCC(=O)NC2=NN=C(c3c(F)c(F)c(F)c(F)c3F)CS2)cc1` [Example 16, 2-{[(4-Methoxyphenyl)sulfonyl]amino}-N-[5-(2,3,4,5,6-pentafluorophenyl)-6H-1,3,4-thiadiazin-2-yl]acetamide] the figure was 0.527 µM. The same measure, in the same setting: with `COc1ccc(S(=O)(=O)NCC(=O)NC2=NN=C(c3ccc(Cl)cc3Cl)CS2)cc1` [Example 19, N-[5-(2,4-Dichlorophenyl)-6H-1,3,4-thiadiazin-2-yl]-2-{[(4-methoxyphenyl)-sulfonyl]amino}acetamide] the figure was 0.306 µM; with `O=C(CC1NC(=O)NC1=O)NC1=NN=C(c2ccc(Cl)cc2)CS1` (stereo not drawn) [Example 23, N-[5-(4-Chlorophenyl)-6H-1,3,4-thiadiazin-2-yl]-2-(2,5-dioxo-4-imidazolidinyl)-acetamide], 0.648 µM; with `CC(C)[C@@H](NS(=O)(=O)c1ccccc1)C(=O)NC1=NN=C(c2ccc(Cl)cc2)CS1` [Example 2, (2R)-N-[5-(4-Chlorophenyl)-6H-1,3,4-thiadiazin-2-yl]-3-methyl-2-[(phenylsulfonyl)amino]butanamide], 8.63 µM.

`C[C@H](NS(=O)(=O)c1ccccc1)C(=O)NC1=NN=C(c2ccc(Br)cc2)CS1` [Example 6, (2S)-N-[5-(4-Bromophenyl)-6H-1,3,4-thiadiazin-2-yl]-2-[(phenylsulfonyl)amino]-propanamide]: the IC50 (read-out: cdMMP-8 IC50) turned out to be 0.231 µM. Still for that read-out and setting: with `COc1ccc(S(=O)(=O)N[C@@H](C)C(=O)NC2=NN=C(c3ccc(C)cc3)CS2)cc1` [Example 17, (2S)-2-{[(4-Methoxyphenyl)sulfonyl]amino}-N-[5-(4-methylphenyl)-6H-1,3,4-thiadiazin-2-yl]propanamide] the figure was 0.599 µM. On the same count and under the same terms, with `C=CCNC1=NN=C(c2ccc(Cl)cc2)CS1` [Example 31, N-Allyl-5-(4-chlorophenyl)-6H-1,3,4-thiadiazin-2-amine hydrobromide] the figure was 51.9 µM. The same measure, in the same setting: with `C[C@H](NS(=O)(=O)c1cccnc1)C(=O)NC1=NN=C(c2ccc(Cl)cc2)CS1` [Example 29, (2S)-N-[5-(4-Chlorophenyl)-6H-1,3,4-thiadiazin-2-yl]-2-[(3-pyridylsulfonyl)-amino]propanamide] the figure was 0.377 µM. Turning to `C[C@H](NS(=O)(=O)N1CCOCC1)C(=O)NC1=NN=C(c2ccc(Cl)cc2)CS1` [Example 28, (2S)-N-[5-(4-Chlorophenyl)-6H-1,3,4-thiadiazin-2yl-]-2-[(4-morpholinylsulfonyl)amino]propanamide], the midpoint of inhibition, the IC50, lay at 0.296 µM. As to `O=C1C[C@@H](C(=O)NC2=NN=C(c3ccc(Cl)cc3)CS2)NC(=O)N1` [Example 30, (4S)-N-[5-(4-Chlorophenyl)-6H-1,3,4-thiadiazin-2-yl]-2,6-dioxohexahydro-4-pyrimidinecarboxamide], the IC50 (read-out: cdMMP-8 IC50) was found to be 0.692 µM.

Turning to `C[C@H](NS(=O)(=O)c1ccccc1)C(=O)NC1=NN=C(c2ccc(C#N)cc2)CS1` [Example 3, (2S)-N-[5-(4-Cyanophenyl)-6H-1,3,4-thiadiazin-2-yl]-2-[(phenylsulfonyl)amino]-propanamide], the IC50 (read-out: cdMMP-8 IC50) was 0.44 µM.
